Results on 3 molecules are retold here after BindingDB's records for doi:10.1021/jm950369c (University of Arizona, 1996).

Each structure is given as a SMILES string. pIC50: −log10 of the molar value.

The experiment is described as follows: Inhibition of [3H]c[D-Pen2,p-Cl-Phe4,D-Pen5]enkephalin binding to delta opioid receptor of guinea pig brain plasma membrane homogenates.
Broadly, the pIC50 is the IC50 on a negative log10 scale, so that one unit is a factor of ten. Low values mean a large IC50, high ones a small IC50. The molecule `CC[C@H](C)[C@H](NC(=O)[C@H](CCCNC(=N)N)NC(=O)[C@@H]1CCCCNC(=O)C[C@@H](NC(=O)[C@@H](N)Cc2ccc(O)cc2)C(=O)NCC(=O)N[C@@H](Cc2ccccc2)C(=O)N[C@@H](CC(C)C)C(=O)N1)C(=O)N[C@@H](CCCNC(=N)N)C(=O)N1CCC[C@H]1C(=O)N[C@@H](CCCCN)C(N)=O` [Cyclic Lactam Peptide Analogues of Dynorphin A(1-11)-NH2] showed a pIC50 of 6.04.

In the case of `CC[C@H](C)[C@H](NC(=O)[C@H](CCCNC(=N)N)NC(=O)[C@@H]1CCCCNC(=O)C[C@H](NC(=O)[C@@H](N)Cc2ccc(O)cc2)C(=O)NCC(=O)N[C@@H](Cc2ccccc2)C(=O)N[C@@H](CC(C)C)C(=O)N1)C(=O)N[C@@H](CCCNC(=N)N)C(=O)N1CCC[C@H]1C(=O)N[C@@H](CCCCN)C(N)=O` [Cyclic Lactam Peptide Analogues of Dynorphin A(1-11)-NH2Cyclic Lactam Peptide Analogues of Dynorphin A(1-11)-NH2], the pIC50 was 7.92.

As to `CC[C@H](C)[C@H](NC(=O)[C@H](CCCCN)NC(=O)[C@H](CCCNC(=N)N)NC(=O)[C@H](CC(C)C)NC(=O)[C@H](Cc1ccccc1)NC(=O)[C@@H](CC(=O)O)NC(=O)CNC(=O)[C@@H](N)Cc1ccc(O)cc1)C(=O)N[C@@H](CCCNC(=N)N)C(=O)N1CCC[C@H]1C(=O)N[C@@H](CCCCN)C(N)=O` [Cyclic Lactam Peptide Analogues of Dynorphin A(1-11)-NH2], the negative logarithm of the IC50 (pIC50) was 6.06.
